Values joined by “and” are separate entries in the source; they are usually repeats but may differ in a detail not shown here. Equal values may be shown once. ± gives the expanded uncertainty stated by the source.
Columns and labels:
[1] = Crystal, Calculated from knudsen effusion weight loss
[2] = mn = molality of the nth substance listed, in mol/kg; conditions: 298 K, 101.3 kPa, Liquid

| vapor or sublimation pressure ([1]; 374.94 K) [kPa] | vapor or sublimation pressure ([1]; 378.75 K) [kPa] | vapor or sublimation pressure ([1]; 380.67 K) [kPa] | vapor or sublimation pressure ([1]; 382.54 K) [kPa] | vapor or sublimation pressure ([1]; 384.45 K) [kPa] | vapor or sublimation pressure ([1]; 386.35 K) [kPa] | vapor or sublimation pressure ([1]; 388.25 K) [kPa] | vapor or sublimation pressure ([1]; 390.15 K) [kPa] | mass density ([2]; m1 = 0.01034) [kg/m3] | mass density ([2]; m1 = 0.01092) [kg/m3] | mass density ([2]; m1 = 0.01101) [kg/m3] | mass density ([2]; m1 = 0.01122) [kg/m3] | mass density ([2]; m1 = 0.01187) [kg/m3] | mass density ([2]; m1 = 0.01292) [kg/m3] | Compound | vapor or sublimation pressure ([1]; 373.02 K) | vapor or sublimation pressure ([1]; 392.01 K) |
| --- | --- | --- | --- | --- | --- | --- | --- | --- | --- | --- | --- | --- | --- | --- | --- | --- |
| 1.376e-05 ± 7e-07 | 2.012e-05 ± 1e-06 | 2.417e-05 ± 1.2e-06 | 2.882e-05 ± 1.5e-06 | 3.348e-05 ± 1.7e-06 | 3.983e-05 ± 2e-06 | 4.61e-05 ± 2.3e-06 | 5.586e-05 ± 2.8e-06 | – | – | – | – | – | – | O=c1[nH]cc(C(F)(F)F)c(=O)[nH]1 [5-(trifluoromethyl)uracil] | 1.187e-05 ± 6e-07 kPa and 1.168e-05 ± 5.9e-07 kPa | 6.401e-05 ± 3.2e-06 kPa and 6.45e-05 ± 3.2e-06 kPa |
| – | – | – | – | – | – | – | – | 997.88 ± 0.2 | 997.938 ± 0.2 | 997.946 ± 0.19 | 997.96 ± 0.19 | 998.017 ± 0.19 | 998.089 ± 0.18 | O=c1[nH]cc(C(F)(F)F)c(=O)[nH]1 [5-(trifluoromethyl)uracil] + O | – | – |

Source: the NIST ThermoML archive (doi:10.1021/je030231w)
